This note sets out measurements from ChEMBL document CHEMBL1201862, “PubChem BioAssay data set” (2004).

Each structure is given as a SMILES string.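 Test compounds were applied to cells in 96-well plates for 48 hours at 5 doses. The concentration for 50% growth inhibition is given as GI50.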 The source made the active and inactive calls. Rule as the data show it: active = GI50 up to about 1.1 µM and inactive = higher.

Some test systems named below: ACHN; CCRF-CEM; COLO 205; EKVX; HCT-15; HOP-92; K562; M19-MEL; NCI-H522; OVCAR-3; OVCAR-8; SF-295; SN12C; UACC-257; UO-31; A498; M14; OVCAR-5; RXF 393; BT-549.
Experiment in all cases: DTP human tumour cell line panel, 48 h

The term GI50 denotes the concentration that inhibits growth by half. Turning to `COc1ccc(C2=NN(C(C)=O)c3nc4ccccc4nc3O2)cc1`, the GI50 in the test with ACHN was 24.4 µM (inactive); with CCRF-CEM, > 100 µM (inactive); in the test on COLO 205, > 100 µM (inactive); in the test on EKVX, 45.6 µM (inactive); with HCT-15 it was 46.6 µM; in the test with HOP-92, 16.4 µM (inactive). For the same molecule, the GI50 in the test with K562 was > 100 µM (inactive); with M19-MEL it was 89.7 µM (inactive); in the test with NCI-H522 it was 20.8 µM (inactive); with OVCAR-3 it was > 100 µM (inactive); in the test with OVCAR-8, 37.3 µM (inactive); with SF-295 it was 26.1 µM (inactive). Moreover, the GI50 in the test on SN12C was > 100 µM (inactive); with UACC-257 it was 50.8 µM (inactive); in the test on UO-31 it was 46.9 µM (inactive).
Take `COc1ccc(O)c2c1C(=O)CCCC2=O`: the GI50 was > 100 µM (inactive) in the test on A498; > 100 µM (inactive) in the test on ACHN; > 100 µM (inactive) with CCRF-CEM; > 100 µM (inactive) in the test with COLO 205; 40.1 µM (inactive) with EKVX; above 100 µM in the test with HCT-15. Besides, the GI50 with K562, in the test with M14, with M19-MEL, in the test on NCI-H522, in the test with OVCAR-3 and with OVCAR-5 was > 100 µM (inactive) each time. For the same molecule, the GI50 with OVCAR-8, in the test on SF-295, in the test with SN12C, in the test with UACC-257 and in the test with UO-31 was > 100 µM (inactive) throughout.
With `CCN(CC)c1ccc(/N=C2\C=C(Cl)C(=O)c3ncccc32)c(C)c1`, the GI50 in the test with ACHN was 2.96 µM (inactive); in the test on CCRF-CEM, 1.68 µM (inactive); with COLO 205 it was 4.2 µM (inactive); in the test with EKVX, 11.2 µM (inactive); in the test with HCT-15 it was 3.85 µM; in the test on HOP-92, 2.15 µM (inactive). Also, the GI50 was 2.28 µM (inactive) in the test on K562; 2.9 µM (inactive) in the test on M14; 4.68 µM (inactive) in the test on M19-MEL; 1.91 µM (inactive) with OVCAR-3; 4.08 µM (inactive) with OVCAR-8; 3.92 µM (inactive) in the test on RXF 393. For the same molecule, the GI50 with SF-295 was 15.6 µM (inactive); in the test with SN12C it was 7.41 µM (inactive); with UACC-257 it was 2.48 µM (inactive); in the test on UO-31 it was 12.4 µM (inactive).
On to `CC(C)NC1CCCCC2c3ccccc3C12O` (stereo unspecified), for which the GI50 in the test with ACHN is > 100 µM (inactive); with CCRF-CEM it was > 100 µM (inactive); in the test on COLO 205, > 100 µM (inactive); in the test with EKVX, > 100 µM (inactive); in the test with HCT-15 it was above 100 µM; in the test on K562, > 100 µM (inactive). The GI50 in the test with M14, with M19-MEL, in the test with NCI-H522, in the test on OVCAR-8, with RXF 393 and with SF-295 was > 100 µM (inactive) throughout. Also, the GI50 in the test with SN12C, in the test on UACC-257 and in the test with UO-31 was > 100 µM (inactive) throughout.
`O=C1[C@H]2ON(c3ccccc3)C(c3cccc([N+](=O)[O-])c3)[C@H]2C(=O)N1c1ccc(Cc2ccc(N3C(=O)[C@@H]4ON(c5ccccc5)C(c5cccc([N+](=O)[O-])c5)[C@@H]4C3=O)cc2)cc1` (stereo partly specified): the GI50 in the test with A498 was 36.5 µM (inactive); in the test with ACHN it was > 100 µM (inactive); in the test on CCRF-CEM, > 100 µM (inactive); with COLO 205, 42.3 µM (inactive); with EKVX, > 100 µM (inactive); with HCT-15, above 100 µM. The GI50 was > 100 µM (inactive) with K562; 21.6 µM (inactive) in the test with M14; > 100 µM (inactive) in the test with M19-MEL; > 100 µM (inactive) with NCI-H522; > 100 µM (inactive) in the test with OVCAR-3; > 100 µM (inactive) in the test on OVCAR-5. The GI50 in the test with OVCAR-8, in the test with RXF 393, with SF-295, in the test with SN12C, in the test on UACC-257 and in the test with UO-31 was > 100 µM (inactive) each time.
`CCCN(CCC)c1c([N+](=O)[O-])cc(C(=O)N(CC)CC)cc1[N+](=O)[O-]`: the GI50 in the test on ACHN is 25.5 µM (inactive); in the test on CCRF-CEM, 20.8 µM (inactive); in the test with COLO 205 it was 18.1 µM (inactive); in the test on EKVX, 18.6 µM (inactive); in the test with HCT-15 it was 21.4 µM; in the test with K562, 12.6 µM (inactive). In addition, the GI50 is 23.2 µM (inactive) in the test with M14; 20.7 µM (inactive) with M19-MEL; 10.2 µM (inactive) in the test with NCI-H522; 14.5 µM (inactive) in the test on OVCAR-3; 30.9 µM (inactive) in the test with OVCAR-5; 18.3 µM (inactive) in the test on OVCAR-8. For the same molecule, the GI50 with RXF 393 was 17.4 µM (inactive); in the test with SF-295 it was 23 µM (inactive); with SN12C, 22.4 µM (inactive); with UACC-257 it was 16.3 µM (inactive); in the test with UO-31, 18 µM (inactive).
On to `C=CCc1cc(OC)c2c(c1)C(O)CC(c1ccc(OC)c(OC)c1)O2` (stereo unspecified), for which the GI50 is > 100 µM (inactive) in the test on ACHN; > 100 µM (inactive) with CCRF-CEM; > 100 µM (inactive) in the test with COLO 205; > 100 µM (inactive) with EKVX; above 100 µM with HCT-15; 20.6 µM (inactive) with HOP-92. The GI50 in the test with K562 is 16.3 µM (inactive); with M14, > 100 µM (inactive); in the test on M19-MEL it was > 100 µM (inactive); in the test with NCI-H522 it was > 100 µM (inactive); in the test with OVCAR-3, > 100 µM (inactive); in the test on OVCAR-5, > 100 µM (inactive). Besides, the GI50 with OVCAR-8 is > 100 µM (inactive); in the test on SF-295, > 100 µM (inactive); in the test with SN12C, > 100 µM (inactive); in the test with UACC-257, 72.4 µM (inactive); in the test on UO-31 it was > 100 µM (inactive).
As to `CN(C)CCNC(=O)c1cccc2nc3cccc(F)c3nc12`, the GI50 is 1.91 µM (inactive) with A498; 0.484 µM (active) in the test with ACHN; 2.23 µM (inactive) with BT-549; 1.11 µM (active) in the test on CCRF-CEM; 0.317 µM (active) with COLO 205; 2.16 µM (inactive) with EKVX. Moreover, the GI50 is 1.16 µM in the test with HCT-15; 1.22 µM (inactive) with HOP-92; 1.29 µM (inactive) with K562; 2.01 µM (inactive) with M14; 1.05 µM (active) in the test on NCI-H522; 1.99 µM (inactive) with OVCAR-3. Besides, the GI50 with OVCAR-5 was 2.6 µM (inactive); in the test with OVCAR-8 it was 0.843 µM (active); with RXF 393 it was 1.54 µM (inactive); with SF-295 it was 1.52 µM (inactive); in the test with SN12C it was 1.02 µM (active); in the test on UACC-257, 1.39 µM (inactive). Also, the GI50 in the test with UO-31 was 0.883 µM (active).
Turning to `COC(=O)C12CCC(C(=O)OC)(Cc3c(c4ccccc4n3S(=O)(=O)c3ccccc3)C1)C2=O` (stereo unspecified), the GI50 is > 100 µM (inactive) with A498; > 64.1 µM (inactive) with ACHN; > 100 µM (inactive) in the test on BT-549; 1 µM (active) with CCRF-CEM; > 100 µM (inactive) in the test with COLO 205; > 100 µM (inactive) in the test with EKVX. The GI50 in the test on HCT-15 was above 100 µM; in the test with HOP-92 it was 1 µM (active); with K562, 62.1 µM (inactive); with M14, > 63.8 µM (inactive); in the test with NCI-H522, 20 µM (inactive); in the test with OVCAR-3 it was > 61.8 µM (inactive). The GI50 with OVCAR-5 is > 32.2 µM (inactive); in the test on OVCAR-8, > 92.7 µM (inactive); in the test with RXF 393, 1.61 µM (inactive); in the test on SF-295, > 51.1 µM (inactive); in the test with SN12C, > 100 µM (inactive); with UACC-257 it was > 64.1 µM (inactive). Besides, in the test on UO-31, the GI50 was > 100 µM (inactive).
`COC(=O)C12Oc3ccc(-c4ccc5c(c4O)C(O)=C4C(=O)CC(C)C(O)C4(C(=O)OC)O5)c(O)c3C(O)=C1C(=O)CC(C)C2O` (stereo unspecified): the GI50 in the test on A498 was 0.544 µM (active); with ACHN, 0.153 µM (active); in the test with BT-549 it was 0.262 µM (active); in the test with CCRF-CEM it was 0.0255 µM (active); in the test with COLO 205 it was 0.0656 µM (active); in the test with EKVX, 0.0805 µM (active). For the same molecule, the GI50 with HCT-15 was 0.216 µM; in the test on HOP-92 it was 0.466 µM (active); in the test on K562, 0.0753 µM (active); with M14 it was 0.104 µM (active); with NCI-H522, 0.0304 µM (active); in the test on OVCAR-3, 0.0719 µM (active). Also, the GI50 with OVCAR-5 is 0.119 µM (active); with OVCAR-8 it was 0.094 µM (active); with RXF 393, 0.0877 µM (active); in the test on SF-295, 0.211 µM (active); with SN12C, 0.121 µM (active); with UACC-257, 0.073 µM (active). Besides, the GI50 in the test on UO-31 is 0.156 µM (active).
For the molecule `CC(NNC(=O)c1ccncc1)c1ccc(F)cc1` (stereo unspecified), the GI50 in the test with A498, with ACHN, in the test on BT-549, with CCRF-CEM, in the test on COLO 205 and with EKVX was > 100 µM (inactive) throughout. The GI50 is above 100 µM in the test on HCT-15; > 100 µM (inactive) with HOP-92; > 100 µM (inactive) with K562; 41.8 µM (inactive) with M14; > 100 µM (inactive) with NCI-H522; > 100 µM (inactive) with OVCAR-3. The GI50 in the test with OVCAR-5, in the test on OVCAR-8, in the test with RXF 393, with SF-295, in the test on SN12C and in the test on UACC-257 was > 100 µM (inactive) in each case. Also, the GI50 with UO-31 is > 100 µM (inactive).
